# Assay results from US11420969B2 (Exonate Limited, priority 2017, dated 2022).
# Experiments:
# CYP3A4 = target: T1, CYP3A4 (Homo sapiens, UniProt P08684); test: CYP inhibition assay, human liver microsomes, substrate midazolam; assay type: in vitro ADME; details: human liver microsomes, 10 min incubation, LC-MS/MS; read-out: CYP Inhibition Activity (IC50/nM) CYP3A4
# T1 construct: from tissue; host or cells: human liver microsomes
# Method in brief: (§1)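 Metabolite formation measured by LC-MS/MS after quench with cold acetonitrile, yielding % inhibition and IC50. Reactions ran 10 min at 37° C after NADPH addition, following 20 min pre-incubation of substrate pool and inhibitor with human liver microsomes.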
# CYP2C19 = target: T2, CYP2C19 (Homo sapiens, UniProt P33261); test: CYP inhibition assay, human liver microsomes, substrate S-mephenytoin; assay type: in vitro ADME; details: human liver microsomes, 10 min incubation, LC-MS/MS; read-out: CYP Inhibition Activity (IC50/nM) CYP2C19
# T2 construct: from tissue; host or cells: human liver microsomes
# T2 sequence (P33261 whole entry): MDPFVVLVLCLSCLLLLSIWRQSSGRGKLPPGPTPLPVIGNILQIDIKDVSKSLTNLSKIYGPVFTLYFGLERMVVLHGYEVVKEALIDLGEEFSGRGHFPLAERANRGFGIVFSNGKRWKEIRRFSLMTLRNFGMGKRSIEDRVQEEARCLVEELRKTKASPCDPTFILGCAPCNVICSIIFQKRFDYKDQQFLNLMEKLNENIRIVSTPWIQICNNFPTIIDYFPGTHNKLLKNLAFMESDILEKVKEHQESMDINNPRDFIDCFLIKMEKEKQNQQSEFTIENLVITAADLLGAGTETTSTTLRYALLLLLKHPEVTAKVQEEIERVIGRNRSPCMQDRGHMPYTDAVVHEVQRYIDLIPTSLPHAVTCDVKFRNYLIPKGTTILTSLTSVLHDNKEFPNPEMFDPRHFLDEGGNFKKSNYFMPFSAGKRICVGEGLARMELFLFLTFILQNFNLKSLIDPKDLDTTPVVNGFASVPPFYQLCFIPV
# Method in brief: as §1
# SRPK1 = SRPK1 (Homo sapiens, UniProt Q96SB4); test: In vitro SRPK1 assay (Kinase-Glo); assay type: biochemical
# SRPK1, sequence (Q96SB4 whole entry, species assumed): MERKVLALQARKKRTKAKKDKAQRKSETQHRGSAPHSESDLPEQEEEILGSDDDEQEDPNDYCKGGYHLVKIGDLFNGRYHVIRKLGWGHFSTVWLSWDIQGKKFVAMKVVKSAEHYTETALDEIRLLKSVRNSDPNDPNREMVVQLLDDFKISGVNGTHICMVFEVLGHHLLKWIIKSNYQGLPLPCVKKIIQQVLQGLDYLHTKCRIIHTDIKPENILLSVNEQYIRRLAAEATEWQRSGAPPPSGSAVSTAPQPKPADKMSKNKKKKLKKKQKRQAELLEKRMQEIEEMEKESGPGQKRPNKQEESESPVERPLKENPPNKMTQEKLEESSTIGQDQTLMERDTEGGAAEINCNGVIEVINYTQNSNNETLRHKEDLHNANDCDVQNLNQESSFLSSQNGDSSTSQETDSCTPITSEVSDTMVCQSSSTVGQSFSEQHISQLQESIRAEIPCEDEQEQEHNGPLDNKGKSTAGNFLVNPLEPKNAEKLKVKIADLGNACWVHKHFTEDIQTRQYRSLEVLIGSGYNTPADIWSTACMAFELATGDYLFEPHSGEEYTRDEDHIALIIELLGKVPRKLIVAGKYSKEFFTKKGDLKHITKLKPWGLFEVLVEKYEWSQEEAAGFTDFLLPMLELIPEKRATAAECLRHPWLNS
# CYP2C9 = target: T3, CYP2C9 (Homo sapiens, UniProt P11712); test: CYP inhibition assay, human liver microsomes, substrate diclofenac; assay type: in vitro ADME; details: human liver microsomes, 10 min incubation, LC-MS/MS; read-out: CYP Inhibition Activity (IC50/nM) CYP2C9
# T3 construct: from tissue; host or cells: human liver microsomes
# T3 sequence (P11712 whole entry): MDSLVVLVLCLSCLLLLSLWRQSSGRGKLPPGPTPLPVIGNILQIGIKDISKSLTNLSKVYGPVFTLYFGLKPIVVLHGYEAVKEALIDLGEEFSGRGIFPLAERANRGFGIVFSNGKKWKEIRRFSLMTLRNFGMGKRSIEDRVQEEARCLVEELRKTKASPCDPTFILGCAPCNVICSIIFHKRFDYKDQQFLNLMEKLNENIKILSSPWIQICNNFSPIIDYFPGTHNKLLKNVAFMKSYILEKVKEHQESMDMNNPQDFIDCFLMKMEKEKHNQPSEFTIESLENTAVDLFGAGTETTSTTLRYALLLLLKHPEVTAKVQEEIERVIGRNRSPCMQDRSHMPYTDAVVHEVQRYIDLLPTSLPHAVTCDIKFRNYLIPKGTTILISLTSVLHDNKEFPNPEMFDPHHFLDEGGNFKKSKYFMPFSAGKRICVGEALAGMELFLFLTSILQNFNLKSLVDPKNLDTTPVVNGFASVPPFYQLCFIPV
# Method in brief: as §1
# CYP2D6 = target: T4, CYP2D6 (Homo sapiens, UniProt P10635); test: biochemical; assay type: in vitro ADME
# T4 construct: from tissue; host or cells: human liver microsomes
# T4 sequence (P10635 whole entry): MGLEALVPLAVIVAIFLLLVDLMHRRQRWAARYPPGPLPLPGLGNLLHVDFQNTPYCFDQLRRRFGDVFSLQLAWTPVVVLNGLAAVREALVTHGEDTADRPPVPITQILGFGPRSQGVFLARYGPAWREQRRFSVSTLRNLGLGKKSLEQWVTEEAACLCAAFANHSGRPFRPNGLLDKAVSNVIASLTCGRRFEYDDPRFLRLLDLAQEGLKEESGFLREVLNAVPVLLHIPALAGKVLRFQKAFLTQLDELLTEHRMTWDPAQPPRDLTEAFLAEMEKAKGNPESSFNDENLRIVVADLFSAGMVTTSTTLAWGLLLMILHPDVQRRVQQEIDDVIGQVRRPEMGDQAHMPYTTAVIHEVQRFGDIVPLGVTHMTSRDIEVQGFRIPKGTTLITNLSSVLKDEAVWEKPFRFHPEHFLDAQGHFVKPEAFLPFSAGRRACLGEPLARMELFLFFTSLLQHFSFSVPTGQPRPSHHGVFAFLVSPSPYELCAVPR
# Method in brief: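 Read-out is LC-MS/MS of supernatant, giving % inhibition and IC50 relative to a no-inhibitor ACN/DMSO control. Compound and substrate pool were pre-incubated 20 min at 37° C with human liver microsomes (working stock 0.253 mg/mL) before a 10 min NADPH-driven reaction, quenched with cold ACN.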
# CYP1A2 = target: T5, CYP1A2 (Homo sapiens, UniProt P05177); test: CYP inhibition assay, human liver microsomes, substrate tacrine; assay type: in vitro ADME; details: human liver microsomes, 10 min incubation, LC-MS/MS; read-out: CYP Inhibition Activity (IC50/nM) CYP1A2
# T5 construct: from tissue; host or cells: human liver microsomes
# T5 sequence (P05177 1-516): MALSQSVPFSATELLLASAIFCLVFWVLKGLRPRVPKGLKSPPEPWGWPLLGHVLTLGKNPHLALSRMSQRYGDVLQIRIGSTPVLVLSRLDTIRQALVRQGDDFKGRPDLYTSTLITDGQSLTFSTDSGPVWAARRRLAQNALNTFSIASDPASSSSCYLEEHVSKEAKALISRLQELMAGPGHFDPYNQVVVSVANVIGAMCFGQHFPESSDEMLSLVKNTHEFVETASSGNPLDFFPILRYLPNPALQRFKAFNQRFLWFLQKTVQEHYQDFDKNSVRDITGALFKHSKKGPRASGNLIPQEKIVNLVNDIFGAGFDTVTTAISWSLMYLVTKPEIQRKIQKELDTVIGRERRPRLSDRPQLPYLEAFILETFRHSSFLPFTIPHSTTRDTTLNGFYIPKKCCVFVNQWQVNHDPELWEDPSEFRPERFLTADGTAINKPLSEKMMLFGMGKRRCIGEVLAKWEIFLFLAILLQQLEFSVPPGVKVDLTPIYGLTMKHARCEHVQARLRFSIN
# Method in brief: as §1
# T1 sequence (P08684 whole entry): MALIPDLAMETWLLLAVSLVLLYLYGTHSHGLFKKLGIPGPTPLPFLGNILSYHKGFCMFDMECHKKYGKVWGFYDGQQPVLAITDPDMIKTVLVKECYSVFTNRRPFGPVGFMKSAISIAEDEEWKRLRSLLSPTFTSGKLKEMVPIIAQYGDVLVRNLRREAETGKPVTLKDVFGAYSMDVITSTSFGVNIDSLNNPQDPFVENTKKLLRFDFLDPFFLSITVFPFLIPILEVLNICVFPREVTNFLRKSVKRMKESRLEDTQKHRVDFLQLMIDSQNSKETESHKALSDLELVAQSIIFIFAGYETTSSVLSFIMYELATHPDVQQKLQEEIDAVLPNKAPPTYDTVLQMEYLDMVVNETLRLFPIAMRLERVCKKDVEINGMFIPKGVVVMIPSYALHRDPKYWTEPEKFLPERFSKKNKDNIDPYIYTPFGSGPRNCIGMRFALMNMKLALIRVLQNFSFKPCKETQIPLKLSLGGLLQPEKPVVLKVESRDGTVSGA
IC50 (CYP3A4),IC50 (CYP2C19),IC50 (SRPK1),IC50 (CYP2C9),IC50 (CYP2D6),IC50 (CYP1A2),SMILES
> 30000 nM,27800 nM,56.1 nM,> 30000 nM,> 30 µM,4700 nM,"CC1CCN(c2ccc(C(F)(F)F)cc2NC(=O)c2ccc(C3CCOCC3)o2)CC1 [Example 35, N-(2-(4-methylpiperidin-1-yl)-5-(trifluoromethyl)-phenyl)-5-(tetrahydro-2H-pyran-4-yl)furan-2-carboxamide]"
> 30000 nM,7500 nM,3.7 nM,4940 nM,21.5 µM,6590 nM,"Cc1ccc(N2CCC(O)CC2)c(NC(=O)c2ccc(C3CCOCC3)o2)c1 [Example 36, N-(2-(4-hydroxypiperidin-1-yl)-5-methylphenyl)-5-(tetrahydro-2H-pyran-4-yl)furan-2-carboxamide]"
> 30000 nM,24500 nM,28.8 nM,9000 nM,> 30 µM,5300 nM,"C[C@@]1(O)CCN(c2ccc(C(F)(F)F)cc2NC(=O)c2ccc(C3CCOCC3)o2)C1 [Example 50, (R)-N-(2-(3-hydroxy-3-methylpyrrolidin-1-yl)-5-(trifluoromethyl)phenyl)-5-(tetrahydro-2H-pyran-4-yl)furan-2-carboxamide]"
> 30000 nM,20100 nM,96 nM,> 30000 nM,> 30 µM,> 30000 nM,"C[C@]1(O)CCN(c2ccc(C(F)(F)F)cc2NC(=O)c2ccc(C3CCOCC3)o2)C1 [Example 51, (S)-N-(2-(3-hydroxy-3-methylpyrrolidin-1-yl)-5-(trifluoromethyl)phenyl)-5-(tetrahydro-2H-pyran-4-yl)furan-2-carboxamide]"
1190 nM,540 nM,216 nM,200 nM,0.15 µM,4360 nM,"C[C@@]1(O)CCN(c2ccc(C(F)(F)F)cc2NC(=O)c2ccc(-c3ccncc3)o2)C1 [Example 52, (R)-N-(2-(3-hydroxy-3-methylpyrrolidin-1-yl)-5-(trifluoromethyl)phenyl)-5-(pyridin-4-yl)furan-2-carboxamide]"
1330 nM,1190 nM,169 nM,450 nM,0.01 µM,2810 nM,"C[C@]1(O)CCN(c2ccc(C(F)(F)F)cc2NC(=O)c2ccc(-c3ccncc3)o2)C1 [Example 53, (S)-N-(2-(3-hydroxy-3-methylpyrrolidin-1-yl)-5-(trifluoromethyl)phenyl)-5-(pyridin-4-yl)furan-2-carboxamide]"
> 30000 nM,10600 nM,1.2 nM,7600 nM,> 30 µM,> 30000 nM,"O=C(Nc1cc(C2CC2)ccc1N1CCC(O)CC1)c1ccc(C2CCOCC2)o1 [Example 61, N-(5-cyclopropyl-2-(4-hydroxypiperidin-1-yl)phenyl)-5-(tetrahydro-2H-pyran-4-yl)furan-2-carboxamide]"
> 30000 nM,12200 nM,1.5 nM,11000 nM,24.8 µM,> 30000 nM,"O=C(Nc1cc(Cl)ccc1N1CCC(O)CC1)c1ccc(C2CCOCC2)o1 [Example 62, N-(5-chloro-2-(4-hydroxypiperidin-1-yl)phenyl)-5-(tetrahydro-2H-pyran-4-yl)furan-2-carboxamide]"
> 30000 nM,> 30000 nM,25 nM,14200 nM,> 30 µM,> 30000 nM,"Cc1ccc(N2CCC(C)(C)CC2)c(NC(=O)c2ccc(C3CCOCC3)o2)c1 [Example 63, N-(2-(4,4-dimethylpiperidin-1-yl)-5-methylphenyl)-5-(tetrahydro-2H-pyran-4-yl)furan-2-carboxamide]"
> 30000 nM,> 30000 nM,5.6 nM,15800 nM,> 30 µM,> 30000 nM,"CC1(C)CCN(c2ccc(C3CC3)cc2NC(=O)c2ccc(C3CCOCC3)o2)CC1 [Example 64, N-(5-cyclopropyl-2-(4,4-dimethylpiperidin-1-yl)phenyl)-5-(tetrahydro-2H-pyran-4-yl)furan-2-carboxamide]"
> 30000 nM,> 30000 nM,9.8 nM,14000 nM,> 30 µM,> 30000 nM,"CC1(C)CCN(c2ccc(Cl)cc2NC(=O)c2ccc(C3CCOCC3)o2)CC1 [Example 65, N-(5-chloro-2-(4,4-dimethylpiperidin-1-yl)phenyl)-5-(tetrahydro-2H-pyran-4-yl)furan-2-carboxamide]"
> 30000 nM,11400 nM,10 nM,2000 nM,> 30 µM,> 30000 nM,"Cc1ccc(N2CCC(C)(CO)CC2)c(NC(=O)c2ccc(C3CCOCC3)o2)c1 [Example 66, N-(2-(4-(hydroxymethyl)-4-methylpiperidin-1-yl)-5-methylphenyl)-5-(tetrahydro-2H-pyran-4-yl)furan-2-carboxamide]"
> 30000 nM,7900 nM,4.1 nM,3300 nM,> 30 µM,> 30000 nM,"CC1(CO)CCN(c2ccc(C3CC3)cc2NC(=O)c2ccc(C3CCOCC3)o2)CC1 [Example 67, N-(5-cyclopropyl-2-(4-(hydroxymethyl)-4-methylpiperidin-1-yl)phenyl)-5-(tetrahydro-2H-pyran-4-yl)furan-2-carboxamide]"
10900 nM,11400 nM,1.2 nM,2800 nM,16.1 µM,> 30000 nM,"CC1(CO)CCN(c2ccc(Cl)cc2NC(=O)c2ccc(C3CCOCC3)o2)CC1 [Example 68, N-(5-chloro-2-(4-(hydroxymethyl)-4-methyl-piperidin-1-yl)phenyl)-5-(tetrahydro-2H-pyran-4-yl)furan-2-carboxamide]"
4400 nM,2200 nM,11 nM,1800 nM,4.7 µM,> 30000 nM,"Cc1ccc(N2CCC(O)(CC3CC3)CC2)c(NC(=O)c2ccc(C3CCOCC3)o2)c1 [Example 70, N-(2-(4-(cyclopropylmethyl)-4-hydroxypiperidin-1-yl)-5-methylphenyl)-5-(tetrahydro-2H-pyran-4-yl)furan-2-carboxamide]"
4190 nM,2700 nM,2.9 nM,5420 nM,8.79 µM,> 30000 nM,"O=C(Nc1cc(C2CC2)ccc1N1CCC(O)(CC2CC2)CC1)c1ccc(C2CCOCC2)o1 [Example 71, N-(5-cyclopropyl-2-(4-(cyclopropylmethyl)-4-hydroxypiperidin-1-yl)phenyl)-5-(tetrahydro-2H-pyran-4-yl)furan-2-carboxamide]"
2370 nM,7540 nM,1.9 nM,2360 nM,4.13 µM,> 30000 nM,"CC1(C(N)=O)CCN(c2ccc(C(F)(F)F)cc2NC(=O)c2ccc(-c3ccncc3)o2)CC1 [Example 72, 4-methyl-1-(2-(5-(pyridin-4-yl)furan-2-carboxamido)-4-(trifluoromethyl)phenyl)-piperidine-4-carboxamide]"
470 nM,1870 nM,5.6 nM,690 nM,1.61 µM,> 30000 nM,"CNC(=O)C1(C)CCN(c2ccc(C(F)(F)F)cc2NC(=O)c2ccc(-c3ccncc3)o2)CC1 [Example 73, N,4-dimethyl-1-(2-(5-(pyridin-4-yl)furan-2-carboxamido)-4-(trifluoromethyl)phenyl)-piperidine-4-carboxamide]"
720 nM,2890 nM,2.9 nM,1130 nM,1.55 µM,> 30000 nM,"CN(C)C(=O)C1(C)CCN(c2ccc(C(F)(F)F)cc2NC(=O)c2ccc(-c3ccncc3)o2)CC1 [Example 74, N,N,4-trimethyl-1-(2-(5-(pyridin-4-yl)furan-2-carboxamido)-4-(trifluoromethyl)phenyl)-piperidine-4-carboxamide]"
10300 nM,10800 nM,2.8 nM,4400 nM,11.8 µM,> 30000 nM,"CC1(C(N)=O)CCN(c2ccc(C(F)(F)F)cc2NC(=O)c2ccc(C3CCOCC3)o2)CC1 [Example 75, 4-methyl-1-(2-(5-(tetrahydro-2H-pyran-4-yl)furan-2-carboxamido)-4-(trifluoromethyl)-phenyl)piperidine-4-carboxamide]"
